As a reminder, the IC50 is the concentration needed to halve the response being measured. The term solubility denotes the dissolved amount per volume that the medium holds.

Values after ≈ are worked out from the molar mass of the structure shown. Values joined by “and” are separate entries in the source; they are usually repeats but may differ in a detail not shown here. Equal values may be shown once.

The nature of data set [1]: Folin–Ciocalteau reduction (FCR) assay, reducing capacity. It counts as biochemical. The settings on record: gallic acid equivalents; mean ± SE. The protocol: Folin-Ciocalteu assay, commonly known as the total phenols assay, determines a sample reducing capacity. FCR contains heteropolyphosphotunstate-molybdates, which are reduced in aqueous milieu at pH ≈ 10 to blue species, presumably (PMoW11O40)^4- [29]. […] This is probably related to high hydrophobicity of these derivatives. Reducing capacity was evaluated using Folin-Ciocalteau reagent with minor modifications as described previously.

Data set [2] is described as follows: DPPH radical scavenging assay. The data set is classed as biochemical. To be noted: methanol, DPPH 20 µM, 30 min; mean ± SE. Here is the method:
When reduced, the solution decolorizes in proportion to the strength and concentration of the antiradical compound tested. The results of this test are usually expressed as the concentration of the compound that reduces 50% of the radical (IC50, Table 1). […] However, no clear relationship between the carboxylic chain length and DPPH radical scavenging activity could be established. Antiradical activity was evaluated spectrophotometrically as the ability of the substances to reduce the DPPH radical as described previously with minor modifications.
(DPPH is a stable violet radical that fades when it is reduced.)

Data set [3] can be described thus: ABTS radical cation scavenging (Antioxidant Assay Kit). The data set is classed as biochemical. To be noted: Trolox equivalents; aqueous buffer pH 5; mean ± SE. The protocol: Determination of ABTS scavenging activity involves an electron-transfer reaction. […] The capacity to scavenge the radical cation (ABTS^·) was evaluated using the Antioxidant Assay Kit (CS0790, Sigma-Aldrich, Prague, Czech Republic) and expressed as Trolox equivalents (TE) from the Trolox calibration curve.

In data set [4] the test system is rat liver microsomal membranes. As to the kind of experiment: Inhibition of microsomal lipid peroxidation induced by tert-butyl hydroperoxide (TBARS). The data set is classed as biochemical. The settings on record: male rat liver microsomes, tert-butylhydroperoxide 1 mM, 37 °C, 30 min, TBARS; mean ± SE; read-out: Lpx (IC50; µM). The source says:
Lipid peroxidation is a type of oxidative degradation of lipids caused by free radicals in cell membranes, resulting in cell damage. The most notable initiators of this chain reaction in living cells are reactive oxygen species (ROS), such as OH· and HO2·, which combine with a hydrogen atom to make water and a fatty acid radical. We used tert-butyl hydroperoxide, a relatively stable organic peroxide, as initiator of peroxidation of rat liver microsomal membranes. The inhibition of this reaction depends not only on the free radical scavenging capacity, but also on the capacity of these compounds to interact with and penetrate lipid bilayers. Isoquercitrin derivatives differed considerably in their capacity to inhibit the peroxidation of microsomal membranes. […] A similar trend, e.g., improving the activity in medium chain derivatives with subsequent drop for longer chain esters, was reported for anti-proliferative activity of IQ monocarboxylic acid esters on the growth of tumoral Caco2 cells, and also for the inhibition of tyrosinase activity.
Pooled microsomes from male rat livers (M9066, Sigma-Aldrich, Prague, Czech Republic) were washed five times using centrifugation and phosphate-buffered saline (PBS, 13,500 rpm, 5 min, 4 °C) to remove sucrose. In addition, 400 µL of the diluted microsomal suspension (0.625 mg protein/mL in PBS), the compounds tested in 50 µL of dimethyl sulfoxide (DMSO, final concentration 5–2000 µM) and 50 µL of tert-butylhydroperoxide in PBS (final concentration 1 mM) were mixed and incubated at 37 °C for 30 min. Determination of lipid peroxidation products as thiobarbituric acid reactive substances (TBARS) and calculation of the IC50 values were performed as described previously.
Background: Liver microsomes are vesicles of endoplasmic reticulum, rich in cytochrome P450 enzymes.

The nature of the next data set: Solubility in water. It counts as physicochemical. To be noted: pH = 6.5, isoquercitrin purity 96.5%. The source says:
The hydrophilicity/lipophilicity of a compound is often crucial for assessing its bioavailability. Flavonoids are generally poorly soluble in water; aqueous solubility increases at alkaline pH as phenols are weak acids. […] [15]).

The conditions of data set [5]: pH not given; cited from earlier work.
The conditions of data set [6]: 50 °C, cited from earlier work.

As to `O=c1c(O[C@@H]2O[C@H](CO)[C@@H](O)[C@H](O)[C@H]2O)c(-c2ccc(O)c(O)c2)oc2cc(O)cc(O)c12` [Compound 1, quercetin-3-O-β-D-glucopyranoside, reference compound], the “FCR (GAE)” value in data set [1] was 1.84 GAE and 1.84 ± 0.04 ^a GAE. Also, the half-maximal inhibitory concentration (IC50) in data set [2] worked out at 1.4 ± 0.06 µM; in data set [4], 972 ± 11 µM. Besides, in data set [3], the “ABTS (TE)” value was 1.97 TE and 1.97 ± 0.06 ^i TE. In the data set “Solubility in water”, this compound returned a solubility of 360 µg/mL (≈ 775 µM). For the same compound, the solubility in water in data set [5] was 95 µg/mL (≈ 205 µM). The solubility in acetone in data set [6] (acetone) was 14000 µg/mL (≈ 30100 µM). The solubility in acetonitrile in data set [6] (acetonitrile) is 1800 µg/mL (≈ 3880 µM). Besides, in data set [6] (tert-amyl alcohol), the “solubility in tert-amyl alcohol” value is 30000 µg/mL (≈ 64600 µM).

These data come from paper PMC4926433, “Isoquercitrin Esters with Mono- or Dicarboxylic Acids: Enzymatic Preparation and Properties” (International Journal of Molecular Sciences, 2016).
